Measurements as given in patent US20100286247A1, “Methods of Protection from Oxidative Stress” (Trustees of Boston University, priority 2005, published 2010).
“Also recorded” adds a separate entry of the source. {P} = phosphate

Key:
SOD2 protein = assay: Western blot analysis of antioxidant enzymes: SOD2 protein; type: cell-based, human
Method: Cell lysates were harvested at various intervals after T-oligo treatment in harvest buffer containing 0.25 M Tris HCl (pH 7.5), 0.375 M NaCl, 2.5% sodium deoxycholate, 1% Triton X-100, 25 mM MgCl2, 0.1 mg/ml aprotinin (Sigma, St. Louis, Mo.) and 1 mM phenylmethyl sulfonyl flouride (PMSF) (Sigma). Samples were sheared through a fine needle syringe, sonicated, centrifuged and the supernatant was isolated. Total cellular protein concentrations were determined spectrophotometrically with the Bio-Rad protein assay (Bio-Rad Laboratories, Inc, Hercules, Calif.). Equal amounts of total protein from each sample (35-65 μg) were separated by 10-15% polyacrylamide gel electrophoresis, and transferred to nitrocellulose membranes. After transfer, gels were stained with Coomassie Blue (Sigma) to ascertain evenness of loading.
Membranes were reacted with antibodies diluted in Tris-based buffer with nonfat milk powder as a blocking agent. […] Antibody binding was detected with electrochemical luminescence (ECL kit, NEN Life Science Products, Inc.) and exposure to XAR film (Eastman Kodak Co.).
Northern and western films as well as stained membranes and pictures of ethidium bromide-stained gels were digitally scanned and analyzed by densitometry. […]

[1] = test system: intracellular ROS in normal newborn human dermal fibroblasts; assay: Dichlorofluorescein diacetate (DCF) assay of intracellular ROS, FACScan; type: cell-based; conditions: for DCF fluorescence (intracellular ROS) compared to diluent: 100 μM pTT / pCC, 40 μM TO / TOC1 / TOC2
Method: Normal newborn human dermal fibroblasts were cultured from foreskin specimens into DMEM supplemented with 10% CS as described above. Due to the large number of cells needed for time course experiments, and to minimize donor variability, in dichlorofluorescein diacetate FACS experiments cells from three different donors were combined.
Purified lyophilized oligonucleotides were obtained and prepared for cell treatment as described above. All treatments involved a single stimulation with T-oligo, after which cells were harvested at various times without medium changes or addition of more T-oligo. Treatment doses were 100 μM pTT and 40 μM TO except in dose-response experiments; these concentrations were determined in previous experiments to be optimal for measuring DNA damage responses using these T-oligos.^142,150,228
Complementary and scrambled oligonucleotides were chosen for each T-oligo. pAA and pCC were used as controls for pTT, and the complementary 11-base pCTAACCCTAAC (TOC1, SEQ ID NO: 22) and a scrambled sequence pGATCGATCGAT (TOC2, SEQ ID NO: 23) were used as controls for the T-oligo TO.
H2DCFDA stock solution (1 mg/ml) was thawed and diluted in Hanks' Balanced Salt Solution, 1× liquid without phenol red (GIBCO Invitrogen, Carlsbad, Calif.), to a working concentration of 100 μM immediately before use. H2DCFDA is converted by intracellular esterases to dichlorofiuorescein (DCF). When oxidized by intracellular ROS, it will fluoresce at 530 nm when excited by 480 nm light. […] All work involving DCF was conducted in minimal room light. Peaks on FACScan plots that shift to the right indicate greater fluorescence and increased ROS levels. For NADPH oxidase inhibitor studies using DPI,^237,239 the DPI stock solution was added directly to DCF treatment solution to achieve a final DPI treatment concentration of 50 μM.
Hydrogen peroxide positive controls were used to rule out saturation of the DCF probe in the T-oligo dose response experiments. Fibroblasts were exposed to 1 mM, 5 mM and 10 mM H2O2 solutions in PBS for 15 minutes following DCF incubation for 30 minutes, harvested and analyzed as described above.
The horseradish peroxidase assay data was analyzed by one-way ANOVA. DCF assay FACScan results were analyzed using Cellquest software (Becton-Dickinson, Calif.). All peak positions on x-axis of the fluorescence histogram plot were determined visually (using the software) and recorded as a number. Peak position values were then compared using one-way ANOVA.

human dermal fibroblasts = assay: Senescence-associated β-galactosidase (SA-β-gal) assay; type: cell-based; conditions: for SA-β-gal positive cells, result in words: up to 72 hours of treatment
Text: Subconfluent senescent fibroblasts were found by Dimri et al. to stain blue in an assay that measures β-galactosidase activity at pH 6.0.^240 As per their protocol, cells were fixed with a 2% formaldehyde and 0.2% glutaraldehyde solution, washed, and stained overnight in X-gal solution. The next day, 3-4 photographs were taken of representative fields in each plate under a 10× microscope objective using coded labels. The number of blue (senescent) cells in each photograph could then be determined in a blinded fashion. The SA-β-gal assay was performed in parallel with the DCF time-course experiments, using the same mixture of donor cells and seeding densities.

[2] = test system: neonatal foreskin fibroblasts; assay: Hydrogen peroxide oxidative challenge, cell yields
Method: Early passage neonatal foreskin fibroblasts were passed to 100 mm dishes and pretreated 24 hours after passage with 100 μM pTT or diluent control. […] For each experiment fresh H2O2 solutions were made in DMEM. The H2O2 and control DMEM solutions were made and sterilized through 0.45 μm syringe filters immediately before treatment. After the one-hour treatment with H2O2 or diluent control, fresh medium was provided. Cells were harvested at later timepoints by a brief washing in 1× EDTA, followed by trypsinization at 37° C. Cell yields were determined using the Coulter Z cell counter.
The hydrogen peroxide oxidative challenge assay data were generated with the combined results of four separate experiments. The averages for each treatment condition and timepoint studied (8, 24, 48, and 72 hours) were used to calculate the percent of adherent H2O2 treated cells relative to diluent-treated cells. Changes in cell yield were determined as a function of time using General Linear Model with repeated measure analysis (SPSS Version 10).
After 72 hours of pretreatment with either 100 μM pTT or diluent control, the same number of cells were replated with fresh 10% CS DMEM lacking pTT. The following day they were exposed to a dose of 25 μM H2O2 or DMEM control for 1 hour, and cell yields were determined at 8, 24, 48 and 72 hours following the H2O2 treatment.
Newborn fibroblasts cells were plated in DMEM supplemented with 10% CS. Forty-eight hours after plating, cells were provided fresh medium. Twenty-four hours later, cells were provided fresh medium containing 40 μM of p[sequence] (abbreviated as TO, SEQ ID NO: 1) or diluent as a control. Seventy-two hours later, cells were harvested and replated in fresh medium lacking oligonucleotides. Twenty-four hours later, cells were provided fresh H2O2 (25 μM) or diluent for 1 hour and then provided fresh DMEM with 10% CS. Cell yield was then measured in TO-pre-treated cultures as well as control cultures.

## pGTTAGGGTTAG (5' {P}, sugars by position and backbone not given here) [TO]
SOD2 protein; 40 μM, within several hours, up to 168 hours
  SOD2 protein level: induced
[1]; 40 μM TO compared to 100 μM pTT
  maximum amount of DCF fluorescence, TO vs pTT: greater than ROS stimulated by pTT-treated cells
[1]
  DCF fluorescence (intracellular ROS) compared to diluent: statistically significant increase in DCF fluorescence
[1]; FIG. 14 donor cells, 100 μM pTT, 40 μM TO
  time measurable ROS stimulation starts: 36 h
[1]; FIG. 16 representative time course, donor variability
  time of measurable ROS stimulation: ≤ 36 h
[1]; within 72 hours, 25, 40 and 100 μM doses
  ROS production (DCF fluorescence) relative to pTT at the same dose: up to 1.5 times
Human dermal fibroblasts
  SA-β-gal positive cells, result in words: did not display S.A. β-gal activity
[2]; 40 μM TO 72 hours pretreatment, 25 μM H2O2 1 hour, up to 48 hours
  resistance to H2O2 measured by total cell yield: increased resistance to H2O2
[2]; 40 μM TO pretreatment, 25 μM H2O2, non-treated control 52%
  cells surviving oxidative challenge by H2O2 (cell yield as percent of own diluent control): 75%

## 5′-phosphorylated thymidine dinucleotides [pTT]
SOD2 protein; 100 μM pTT, at 24 hours, three donors, mean±SEM
  SOD2 protein maximal relative induction compared to diluent: 31% (±20%)
[1]
  DCF fluorescence (intracellular ROS) compared to diluent: statistically significant increase in DCF fluorescence
Human dermal fibroblasts; 40 μM TO or 100 μM pTT, 24-72 hours of treatment
  cells staining positive in the SA-β-gal assay: Less than 10%
Human dermal fibroblasts
  SA-β-gal positive cells, result in words: did not result in a significant number of SA-β-gal cells; also recorded: did not display S.A. β-gal activity
[2]; 100 μM pTT 72 hours pretreatment, 25 μM H2O2 1 hour, p=0.0008
  cell yields over time following exposure to H2O2 vs diluent pretreated: higher cell yields
[2]; 100 μM pTT pretreatment, 25 μM H2O2
  cell yields at 8 hours after H2O2 treatment vs diluent-pretreated: lower cell yields than in the diluent-pretreated group
[2]; 100 μM pTT pretreatment, 24 and 48 hours after 25 μM H2O2
  higher relative cell yields (percentage of respective H2O2 controls) vs diluent-pretreated: 10%
